Test results taken from patent US20240285557A1, “PHARMACEUTICAL COMPOSITION COMPRISING LIPASE INHIBITOR FOR TREATMENT OR TREATMENT OF RNA VIRAL INFECTIONS” (priority 2021, published 2024).
Where two headings read alike, the source gives them in different places.

Legend:
[1] = MTT half-maximal cytotoxic concentration (CC50); details: dog
[2] = system: A549 cells
Method: (§1) To determine the half-maximal cytotoxic concentration (CC50) of the lipase inhibitors atglistatin and CAY10499, Vero E6, A549, HRT-18G, MA104, MARC-145, and LLC-PK cells were prepared in monolayers in 96-well plates.
(§2) The cells were treated with the drugs for 24 hours, and the culture media was removed before addition of 200 μL of 3-(4,5-dimethylthiazol-2-yl)-2,5-diphenyl tetrazolium bromide (MTT) solution to each well. The plates were then incubated for 4 hours in a 5% CO2 incubator at 36° C. Subsequently, 150 μL of DMSO solution was added to each well and incubated at 20° C. The optical density (OD) was measured at 570 nm wavelength using an enzyme-linked immunosorbent assay (ELISA) reader.

[3] = system: MDCK cells
[4] = system: HRT18G cells
Method: as §1, §2

[5] = system: MA104 cells
Method: as §1, §2

[6] = system: MARC cells
Method: as §1, §2

[7] = system: LLC-PK cells
Method: as §1, §2

[8] = system: A549, Vero E6, MDCK, HRT18G, MA04, MARC, and LLC-PK cells
Method: as §1, §2

[9] = MTT half-maximal cytotoxic concentration (CC50); details: African green monkey
Method: as §1, §2

[10] = system: A549 cells; test: MTT half-maximal cytotoxic concentration (CC50); details: drugs for 24 hours
Method: as §1, §2

[11] = system: HRT18G cells; test: MTT half-maximal cytotoxic concentration (CC50); details: drugs for 24 hours
Method: as §1, §2

[12] = system: MARC cells; test: MTT half-maximal cytotoxic concentration (CC50); details: MARC; drugs for 24 hours, MTT
Method: as §1, §2

[13] = system: LLC-PK cells; test: MTT half-maximal cytotoxic concentration (CC50); details: LLC-PK; drugs for 24 hours, MTT
Method: as §1, §2

Work on `CN(C)C(=O)Nc1cccc(-c2ccc(N(C)C)cc2)c1` [Atglistatin, 3-(4′-(dimethylamino)-(1,1′-biphenyl)-3-yl)-1,1-dimethylurea] yielded a CC50 at 24 h [1] of 269 µM.

`COc1nn(-c2ccc(NC(=O)OCc3ccccc3)c(C)c2)c(=O)o1` [CAY10499] gave a CC50 [2] of 106 µM, a CC50 [3] of 110 µM and a CC50 [4] of 104 µM. For the same compound, the CC50 [5] was 107 µM, the CC50 [6] was 101 µM and the CC50 [7] was 109 µM. For the same compound, the CC50 [8] was 101 to 110 µM.

`CCN(C)C(=O)Nc1cccc(-c2ccc(N(C)C)cc2)c1` [DABPU-EM, 3-(4′-(dimethylamino)-(1,1′-biphenyl)-3-yl)-1-ethyl-1-methylurea] gave a CC50 at 24 h [9] of 210 µM.

`CCN(CC)C(=O)Nc1cccc(-c2ccc(N(C)C)cc2)c1` [DABPU-DE] gave a CC50 [10] of 213 µM, a CC50 [11] of 177 µM and a CC50 [12] of 216 µM. It also gave a CC50 [13] of 226 µM.
